Test results reported in patent US20170151278A1, “T[…] RELEASING SYSTEM” (priority 2014, published 2017).

What was measured:
[1] = CO release from CORM-2 suspension in Na2SO3 solution as a function of ionic strength; type: physicochemical; conditions: n=3
Description: Experiments assessing the impact of the release medium on CO release (see FIG. 5A, 5B) were done in comparison to control experiments, within which 12 mg coated Na2SO3 crystals were measured in simulated gastric fluid without enzymes to control for possible detector interference with sulfites (interference was not observed with these experimental conditions; data not shown). Experiments assessing the impact of the coating procedure on CO release were done in comparison to control experiments, within which 3 mg CORM-2 was suspended in 25 mL of 0.333 g/L Na2SO3 solution (see FIG. 6 for results). In another set of control experiments, the impact of the ionic strength of the release medium and the impact of the salt with which the ionic strength was set (using sodium chloride solutions to set ionic strengths of 0.88 mol/L and 1.8 mol/L, respectively, and magnesium chloride to set an ionic strengths of 1.26 mol/L) on CO release was studied using CORM-2 suspensions. For that, CORM-2 was exposed to 25 mL of 0.333 g/L Na2SO3 in the appropriate release medium (for results, see FIG. 7).

[2] = CO release from CORM-2 suspension, amperometric detection in a sealed flask, triggered by Na2SO3; type: physicochemical
Source text: An Erlenmeyer flask purchased from Gebr. Rettberg (Gottingen, Germany) was used as reaction space. For insertion of the CO sensor and to seal the reaction space, a conically tapered joint from Schott Medica (Wertheim, Germany) was equipped with a glass guide tube for an electric wire. As a prerequisite for cross referencing with calibration gas, a single-bore stopcock was connected to the Erlenmeyer flask as well as to the conically tapered joint. The integrated CO sensor of the “Ei207D” CO detector (Ei Electronics, Shannon, Ireland) was removed and externally connected using a “Wire Wrap” 0.404 mm^2 wire (Kabeltronik, Denkendorf, Germany) linked with a 1.3 mm accessory shoe (Vogt AG, Lostorf, Switzerland). The wire was glued into the guide tube with “UHU plus endfest” epoxide resin (UHU, Bũhl, Germany) to seal the system. On-line videos were collected monitoring the detector with USB webcams with the Eyeline video surveillance software (NCH Software, Canberra, Australia).
The CO release from CORM-2 was triggered by Na2SO3 and amperiometrically detected. For that, 4.3 mg CORM-2 were placed in the Erlenmeyer flask filled with 15 ml Millipore water and stirred at 130 rpm (Variomag Telesystem, Thermo Scientific, MA). After 25 minutes, 10 mg Na2SO3 were added to the reaction space. CO release in ppm as read from the detector of each system was calibrated with 100 ppm CO calibration gas (diluted in air; from Real Gas (Martinsried, Germany) and normalized, accordingly (see FIG. 1 for results).
A concentration series of CO was generated by transferring different amounts of CORM-2 into 25 mL of a stirred (130 rpm) 333 mg/L aqueous Na2SO3 solution. CO release [ppm] after 60-80 minutes was plotted against the amount of CORM-2 [mg] placed into the system. Following this procedure, CO release [ppm] is expressed as amount of CORM-2 [mg], with one CORM-2 equivalent being defined as the amount of CO released per milligram CORM-2 after 60-80 minutes and when exposed to the experimental conditions described in this section (see FIG. 2B for results). CO release from CORM-2 expressed in CORM-2 equivalents [mg] followed a linear pattern (y=0.0192+1.0199x; r^2>0.99; n=1 for 14 independent measurements).
CO data reported in the example is calculated from the corresponding release from CORM-2 equivalents and if reported for CORM-A1, calculated using linear regression. […] Therefore, CO loss by and from the system was quantified and basis for data correction. For the correction, the loss by and from the system was recorded and added to the data as read from the detector (vide infra). For assessment of CO loss and data correction, CO was generated from CORM-2 in presence of Na2SO3 with stirring at 130 rpm, until reaching a value of approximately 800 ppm. At this point the stirring was stopped. CO loss [ppm] was recorded when a value of 720 ppm was reached and followed an exponential decline (y=717.5*e−0.145x; r^2>0.99; n=5; see FIGS. 3A and 3B for results).

Compound: [C-]#[O+].[C-]#[O+].[C-]#[O+].[C-]#[O+].[C-]#[O+].[C-]#[O+].[Cl][Ru][Cl].[Cl][Ru][Cl] [CORM-2, Tricarbonyldichlororuthenium(II) dimer]
- reduction of CO release ([1]; ionic strength 0.88 mol/L set with NaCl, compared with 0.008 mol/L): 26±9%
- reduction of CO release ([1]; ionic strength 1.26 mol/L set with MgCl2): 50±3%
- reduction of CO release ([1]; ionic strength 1.8 mol/L set with NaCl): 53±6%
- CO release of CORM-2 suspended in water ([2]; 4.3 mg CORM-2 in 15 ml water, before Na2SO3 was added): no detectable CO release
- time to complete CO release after Na2SO3 was added ([2]; 10 mg Na2SO3 added after 25 min): ≤ 25 min
- CO release reached within the time frame ([2]; 60-80 minutes in 25 mL of 333 mg/L aqueous Na2SO3, stirred at 130 rpm): > 90%
- time to half maximal CO release ([2]; CORM-2 suspension control, 3 mg in 25 mL of 0.333 g/L Na2SO3): 20 min
- CO release plateau ([2]; after 40 minutes, Na2SO3 triggered): 550 ppm
- time at which CO release plateaus (corrected data) ([2]; sulfite triggered, corrected for CO loss): approximately 140 minutes
